Test results reported in EP4458916A1, “PHOTOCATALYTICALLY ACTIVE COATING COMPOSITION, METHOD FOR THE PRODUCTION THEREOF AND USE THEREOF” (priority 2023, dated 2024).
Read-outs that look alike come from different tables or passages of the source.

Columns and labels:
S. enterica = test: Bacteria test following modified ISO 22196, photodynamic effect of different photocatalysts in the SolGel coating on S. enterica; assay type: cell-based; conditions: Rezeptur 4 nach Beispiel 5 on Melamin, 4 h
Description: (§1) Die Bestimmung der antimikrobiellen Aktivität erfolgte nach einer modifizierten Version der ISO 22196:2011-08 ("Messung von antibakterieller Aktivität auf Kunststoff- und anderen porenfreien Oberflächen", Ausgabedatum: 2011-08).
(§2) Bei der Testdurchführung wurde ein dünner Flüssigkeitsfilm, in dem die Bakterien enthalten sind (1,25 x 10^4 /cm2), direkt auf die Probekörper (2,5 cm x 2,5 cm) aufgebracht. Direkt nach Beimpfung wurden von der Nullprobe die Bakterien von den Probekörperoberflächen mittels Ultraschall und Vortexen abgelöst und die Keimzahl (KBE (engl. CFU), Kolonie-bildende Einheit) bestimmt (t0-Wert). Ein weiterer Satz Nullproben und antimikrobiell ausgestatteter Proben wurden mit Bakterien im Flüssigkeitsfilm bei Raumtemperatur inkubiert. Nach 4 h wurden überlebende Bakterien von den Probekörperoberflächen mittels Ultraschall und Vortexen abgelöst und die Keimzahl bestimmt (t4-Wert).
(§3) Im Unterschied zu der in der ISO 22196:2011-08 beschriebenen Methode wurde das Inokulum nicht mit einer Folie abgedeckt und die Inkubationszeit von 24 auf 4 Stunden reduziert. Weiterhin wurden die Platten der Proben 3 und 4 mit Licht mit einer Intensität von 300 µW/cm2 belichtet.
(§4) Der Bakterientest wurde in Anlehnung an ISO 22196 nach oben beschriebener Methode durchgeführt. Die Ergebnisse sind Tabelle 57a bis 57b dargestellt. Tabelle 57a: Photodynamische Wirkung verschiedener Katalysatoren in der SolGel Beschichtung gegen S.aureus

S.aureus = assay type: cell-based; conditions: for Log10 Reduktion Dunkelkontrolle 1 mM / Log10 Reduktion Dunkelkontrolle 2 mM: dark; for Log10 Reduktion Wirksamkeit 1 mM / Log10 Reduktion Wirksamkeit 2 mM: light
Bakterien [1] = test: Photostability: bacteria test (ISO 22196) after simulated long-term illumination (18 mW/cm^2, 405 nm); assay type: cell-based; conditions: 4 h, Rezeptur 2 (Borsäure) on Melamin, 2 mM
Description: as §1, §2, §3
Zur Bewertung der Photostabilität des Farbstoffs S-25a (2 mM) in der Beschichtung wurden beschichtete Flächen mit 18 mW/cm^2 (405 nm, ca. 200 Fache Raumlichtintensität, Zeitrafferversuch) bestrahlt. So wurde eine Echtzeit-Photostabilität von 2 Jahren simuliert.
Der Bakterientest wurde in Anlehnung an ISO 22196 nach oben beschriebener Methode durchgeführt. Die Ergebnisse sind in der Tabelle 61 zusammengefasst. Tabelle 61: Mikrobiologische Wirksamkeit nach simulierter Photobelastung für 1, 2, 3, 6, 12 und 24 Monate

verschiedene Virenstämme = test: Virus test following ISO 21702, photodynamic effect of a SolGel coating on different virus strains; conditions: read-out: Log10 Reduktion Probe
Bakterien [2] = test: Thermal ageing: bacteria test (ISO 22196) after accelerated ageing ASTM F1980-16 at 60°C for 4 weeks; assay type: cell-based; conditions: 4 h, beschleunigte Alterung 60°C, Rezeptur 2 (Borsäure) on Melamin, 2 mM
Description: as §1, §2, §3
Zur Beurteilung der Schicht auf Alterungsprozesse, wurde eine beschleunigte Alterung nach ASTM F1980-16 bei 60°C für 4 Wochen durchgeführt.
Der Bakterientest wurde in Anlehnung an ISO 22196 nach oben beschriebener Methode durchgeführt. Die Ergebnisse sind in der Tabelle 62 zusammengefasst. Tabelle 62: Mikrobiologische Wirksamkeit (log10 Reduktion) bei beschleunigter Alterung (60°C).

Bakterien [3] = test: Room light tests (Raumlichtversuche): antimicrobial efficacy at 10 µW/cm^2 for 24 h; assay type: cell-based; conditions: Farbstoff 5 mM, coating Rezeptur 3, Beispiel 2a (2,5 eq aqueous boric acid, 50 mM)
Procedure: Um die antimikrobielle Wirksamkeit in einem realen Szenario abzuschätzen, wurden sogenannte Raumlichtversuche durchgeführt. Dazu wurden die mit Bakterien versetzten Probenträger mit einer, für Innenräume repräsentativen Lichtintensität von 10 µW/cm^2 für einen Zeitraum von 24 h bestrahlt.
Herstellung der Beschichtung erfolgte gemäß Beispiel 2a (2,5 eq wässrige Borsäure, 50 mM), mit Rezeptur 3. Die Ergebnisse sind in der Tabelle 63 zusammengefasst. Tabelle 63: Antimikrobielle Wirksamkeit bei Raumlichtbedingungen

I. monocytoqenes = test: Bacteria test following modified ISO 22196, photodynamic effect of different photocatalysts in the SolGel coating on I. monocytoqenes; assay type: cell-based; conditions: Rezeptur 4 nach Beispiel 5 on Melamin; 4 h, dark
Description: as §1, §2, §3, §4

[4] = Immersion test: binding / wash-out of photocatalysts from SolGel coatings (1 h deionised water, UV-VIS signal loss); assay type: physicochemical; conditions: Rezeptur 5 coating on glass, dye 10 bis 40 mM; 1 h deionised water pH 6 ± 1, 22 ± 3 °C; relative UV-VIS signal loss at absorption maximum
Procedure: Für alle Untersuchungen wurden nach Beispiel 8 beschichtete Glasträger verwendet.
Um das Auswaschen der verschiedenen Farbstoffe in den Sol-Gel-Beschichtungen zu beurteilen wurde ein Immersionstest in vollentsalztem Wasser mit einem pH-Wert von (6 ± 1) und einer Wassertemperatur von (22 ± 3) °C für eine Stunde durchgeführt. Dazu wurden zunächst Schichten (Rezeptur 5, Beispiel 4, aufgefüllt mit 3,0 mL 2-Propanol; sh. Tabelle 3) mit erhöhter Farbstoffkonzentration (10 bis 40 mM; um die notwendige Auflösung bei der dünnen Schicht zu erreichen) auf Glas-Objektträgern erzeugt. Diese wurden nach dem Ablüften bei Raumtemperatur (30 min) eine Stunde bei 60°C nachgehärtet. Anschließend wurden die Schichten direkt im UV-VIS-Spektrometer vermessen. Die Ausgangswerte (Absorptionsmaximum des jeweiligen Farbstoffs) sollten dabei zwischen 0,05 A.U. und 1,50 A.U. liegen.
Nach einer Stunde in VE-Wasser wurden die Prüfkörper getrocknet und erneut gemessen. Aus den beiden Messungen wurde ein relativer Signalverlust in Prozent bei dem farbstoffspezifischen Absorptionsmaximum bestimmt.
Dieser Immersionstest diente dazu, das Auswaschverhalten verschiedener Farbstoffe aus Beschichtungssystemen zu beurteilen. Weiter soll er dabei helfen, verschiedene Farbstoffklassen oder verschiedene Farbstoffderivate einer Farbstoffklasse bezüglich dieser Charakteristik miteinander zu vergleichen. Die Ergebnisse sind in den folgenden Tabellen sortiert nach Stoffgruppen zusammengefasst: […]

[5] = Rezeptur 2, Verdünnung mit IPA 1:2
[6] = Rezeptur 2, Verdünnung mit IPA 1:5
[7] = Rezeptur 2, Verdünnung mit IPA 1:8

Q: Which “S. enterica Log10 Reduktion Probe” value (S. enterica; 300 µW/cm2) does the source give for `CC(C)(O)c1cc[n+](CC2=Cc3cccc4cccc(c34)C2=O)cc1` [S-25a] here?
A: 2,5±0,4

Q: What about the “S. enterica Log10 Reduktion Dunkelkontrolle” value (S. enterica; dark) of the same molecule?
A: 0,0±0,1

Q: What about the “Log10 Reduktion Dunkelkontrolle 1 mM” value (S.aureus; [5]) of the same molecule?
A: 0,1±0,4

Q: And the “Log10 Reduktion Dunkelkontrolle 2 mM” value (S.aureus; [5])?
A: 0,0±0,0

Q: What about the “Log10 Reduktion Wirksamkeit 1 mM” value (S.aureus; [5]) of the same molecule?
A: 3,0±0,2

Q: And the “Log10 Reduktion Wirksamkeit 2 mM” value (S.aureus; [5])?
A: 3,3±0,5

Q: What about the “Log10 Reduktion Dunkelkontrolle 1 mM” value (S.aureus; [6]) of the same molecule?
A: 0,0±0,2

Q: And the “Log10 Reduktion Dunkelkontrolle 2 mM” value (S.aureus; [6])?
A: 0,1±0,1

Q: And the “Log10 Reduktion Wirksamkeit 1 mM” value (S.aureus; [6])?
A: 2,0±0,2

Q: And the “Log10 Reduktion Wirksamkeit 2 mM” value (S.aureus; [6])?
A: 2,8±0,2

Q: And the “Log10 Reduktion Dunkelkontrolle 1 mM” value (S.aureus; [7])?
A: 0,0±0,2

Q: And the “Log10 Reduktion Dunkelkontrolle 2 mM” value (S.aureus; [7])?
A: 0,0±0,1

Q: And the “Log10 Reduktion Wirksamkeit 1 mM” value (S.aureus; [7])?
A: 1,5±0,1

Q: And the “Log10 Reduktion Wirksamkeit 2 mM” value (S.aureus; [7])?
A: 2,7±0,6

Q: And the log reduction at 2000 µM (Bakterien [1]; 2 Monate simulated, dark, read-out: Log10 Reduktion nach x Monaten simulierter Belastung: 2, Dunkelkontrolle)?
A: 0.2

Q: What about the log reduction at 2000 µM (Bakterien [1]; 3 Monate simulated, dark, read-out: Log10 Reduktion nach x Monaten simulierter Belastung: 3, Dunkelkontrolle) of the same molecule?
A: 0.2

Q: What about the log reduction at 2000 µM (Bakterien [1]; 24 Monate simulated, dark, read-out: Log10 Reduktion nach x Monaten simulierter Belastung: 24, Dunkelkontrolle) of the same molecule?
A: 0.2

Q: And the log reduction at 2000 µM (Bakterien [1]; pre-illumination 18 mW/cm^2, 405 nm, 0 Monate, read-out: Log10 Reduktion nach x Monaten simulierter Belastung: Start (0), Probe)?
A: 4.7

Q: What about the log reduction at 2000 µM (Bakterien [1]; pre-illumination 18 mW/cm^2, 405 nm, 1 Monat simulated, read-out: Log10 Reduktion nach x Monaten simulierter Belastung: 1, Probe) of the same molecule?
A: 4.6

Q: And the log reduction at 2000 µM (Bakterien [1]; pre-illumination 18 mW/cm^2, 405 nm, 2 Monate simulated, read-out: Log10 Reduktion nach x Monaten simulierter Belastung: 2, Probe)?
A: 4.3

Q: And the log reduction at 2000 µM (Bakterien [1]; pre-illumination 18 mW/cm^2, 405 nm, 3 Monate simulated, read-out: Log10 Reduktion nach x Monaten simulierter Belastung: 3, Probe)?
A: 4.2

Q: What about the log reduction at 2000 µM (Bakterien [1]; pre-illumination 18 mW/cm^2, 405 nm, 6 Monate simulated, read-out: Log10 Reduktion nach x Monaten simulierter Belastung: 6, Probe) of the same molecule?
A: 4.3

Q: What about the log reduction at 2000 µM (Bakterien [1]; pre-illumination 18 mW/cm^2, 405 nm, 12 Monate simulated, read-out: Log10 Reduktion nach x Monaten simulierter Belastung: 12, Probe) of the same molecule?
A: 4.3

Q: And the log reduction at 2000 µM (Bakterien [1]; pre-illumination 18 mW/cm^2, 405 nm, 24 Monate simulated, read-out: Log10 Reduktion nach x Monaten simulierter Belastung: 24, Probe)?
A: 4.3

Q: What about the log reduction at 2000 µM (verschiedene Virenstämme; 83 min) of the same molecule?
A: 5.5

Q: And the log reduction at 2000 µM (verschiedene Virenstämme; Influenza A virus, H1N1, 83 min)?
A: 3.8

Q: What about the log reduction at 2000 µM (verschiedene Virenstämme; unidentified adenovirus, 83 min) of the same molecule?
A: 2

Q: What about the log reduction at 2000 µM (Bakterien [2]; 0 Wo, dark, read-out: Log10 Reduktion nach 0 Wo, Dunkelkontrolle) of the same molecule?
A: 0.1

Q: And the log reduction at 2000 µM (Bakterien [2]; 0 Wo, read-out: Log10 Reduktion nach 0 Wo, Probe)?
A: 3.9

Q: And the log reduction at 2000 µM (Bakterien [2]; 1 Wo, dark, read-out: Log10 Reduktion nach 1 Wo, Dunkelkontrolle)?
A: 0

Q: And the log reduction at 2000 µM (Bakterien [2]; 1 Wo, read-out: Log10 Reduktion nach 1 Wo, Probe)?
A: 3.8

Q: What about the log reduction at 2000 µM (Bakterien [2]; 2 Wo, dark, read-out: Log10 Reduktion nach 2 Wo, Dunkelkontrolle) of the same molecule?
A: 0

Q: What about the log reduction at 2000 µM (Bakterien [2]; 2 Wo, read-out: Log10 Reduktion nach 2 Wo, Probe) of the same molecule?
A: 3.4

Q: And the log reduction at 2000 µM (Bakterien [2]; 3 Wo, dark, read-out: Log10 Reduktion nach 3 Wo, Dunkelkontrolle)?
A: 0.3

Q: And the log reduction at 2000 µM (Bakterien [2]; 3 Wo, read-out: Log10 Reduktion nach 3 Wo, Probe)?
A: 3.3

Q: And the log reduction at 2000 µM (Bakterien [2]; 4 Wo, dark, read-out: Log10 Reduktion nach 4 Wo, Dunkelkontrolle)?
A: 0.4

Q: And the log reduction at 2000 µM (Bakterien [2]; 4 Wo, read-out: Log10 Reduktion nach 4 Wo, Probe)?
A: 2.8

Q: What about the log reduction at 5000 µM (Bakterien [3]; 24 h, dark control, read-out: Log10 Reduktion Dunkelkontrolle) of the same molecule?
A: 1.1

Q: And the log reduction at 5000 µM (Bakterien [3]; illuminated 10 µW/cm^2 for 24 h, read-out: Log10 Reduktion 24 h)?
A: 2.6

Q: And the “I. monocytoqenes Log10 Reduktion Dunkelkontrolle” value (I. monocytoqenes)?
A: 0,0±0,1

Q: And the “Verlust durch Auswaschen” value [4]?
A: 8%
